Data set [1] has as its system IL-23 secretion in DC cells. Kind of data set: Inhibition of Zymosan-stimulated IL-23 secretion in DC cells differentiated from human mononuclear cells. It counts as cell-based. As to conditions: Zymosan 200 μg/ml, 24 hours, ELISA. The protocol: Day 0: Mononuclear cells were isolated from fresh human peripheral blood and purified, and then resuspended in RPMI-1640 complete medium. When differentiation into DC cells took place, IL-4 at a concentration of 50 ng/ml and GM-CSF at 100 ng/ml were added to the medium, and the cells were cultured at a density of 1×10^6 cells/mL in a culture dish with a diameter of 100 mm for differentiation in an incubator at 37° C. with a carbon dioxide concentration of 5%. Day 3: Half the volume of RPMI complete medium was replaced with fresh RPMI complete medium, and the concentrations of IL-4 and GM-CSF were maintained at 50 ng/ml and 100 ng/ml respectively. Day 6: Non-adherent cells (DC cells) in the culture dish were collected and washed with PBS. The washed DC cells were resuspended with RPMI complete medium at a density of 1×10^6 cells/mL. Then, 1×10^5 DC cells were added to each well of the 96-well cell culture plate and pre-incubated for 1 hour with different dilutions of the compounds to be tested (or DMSO blank negative control at an equivalent concentration), followed by addition of 200 μg/ml of TLR2 agonist Zymosan to stimulate the DC cells for 24 hours. Day 7: After the DC cells were stimulated by Zymosan for 24 hours, the supernatant in each well of the 96-well plate was collected and detected by ELISA for the concentration of IL-23.
A general note: In an ELISA, binding on a coated surface is turned into a signal by an enzyme label.

Data set [2] concerns imiquimod-induced mouse model of psoriasis. As to the kind of experiment: Imiquimod-induced psoriasis suppression assay. Type of data set: in vivo, Balb/c female mice. Also on record: key to Erythema score, Mean / Psoriasis score, Mean / Thickness score, Mean: 0-5 scale, higher = more severe; key to Total clinical score, Mean: sum of 0-5 component scores; higher = more serious disease. As to conditions: for Ratio of spleen to body weight, Mean: Day 7, percentage of spleen to body weight; for Erythema score, Mean / Psoriasis score, Mean / Thickness score, Mean: Days 1-7; for Total clinical score, Mean: Days 1-7, endpoint of the experiment; for Effect on clinical score at the endpoint of the experiment / Effect on the ratio of spleen to body weight / Effect on the increase in skin thickness: Compound A 0.03%, versus model group; for Effect on clinical score at the endpoint of the experiment: each dose of Compound I (0.01%, 0.03%, 0.1%); for Effect on the ratio of spleen to body weight: three dose groups of Compound I; for Effect on the increase in skin thickness: Compound I low and high dose groups. The source says:
An appropriate amount of Compound I was formulated into an ointment with the following components: 0.1% of Compound I, 9% of hexanediol, 78.8% of white petrolatum, 5% of paraffin, 7% of glyceryl mono- and di-stearate, and 0.1% of dihydroxybutyl toluene, which were mechanically stirred until an ointment was formed.
7-Week-old Balb/c female mice were used and the hair on their back in an area of 2 cm×3 cm was shaved the day before the experiment. On Days 1-7 of the experiment, the test compounds were applied on the skin, and after 6 hours, imiquimod (IMQ) ointment (Aldara (5%)) was continuously applied to the back skin of mice for 7 days, so as to establish a mouse model of psoriasis, while the control group was given the same dose of petrolatum ointment. On Days 3, 5 and 7, the severity of skin inflammation was assessed, including measurement of skin thickness, crusting and erythema, scored on a 5-point scale (0-5) respectively. The total score was used to assess the severity of skin inflammation. On Day 7 of the experiment, the spleen was collected and weighed, and the percentage of spleen to body weight was calculated to assess the immunosuppressive effect of the drug.
Normal control group, model control group, low, medium and high dose groups of Compound I (0.01%, 0.03% and 0.1%), and 0.03% reference Compound A group were set up in this experiment.
The total score of the degree of skin inflammation are the clinical score, the indicators of which are relatively subjective, and higher score indicated more serious disease. The degree of increase in skin thickness was an objective assessment indicator, and more increase in thickness indicated more serious disease. The ratio of spleen to body weight was an objective assessment indicator, and smaller ratio of spleen to body weight indicated stronger immunosuppressive effect of the drug.

A further data set has as its target T1, PDE4B1 enzyme (Homo sapiens, UniProt Q07343).
T1 construct: purchased BPS 60041
Kind of data set: In vitro PDE4B enzyme activity detection assay (IMAP FP, FAM-cAMP substrate). It counts as biochemical. As to conditions: PDE4B1 0.04 nM, FAM-cAMP 0.1 μM, 25° C. 30 min. The protocol: A stock solution of the compound at a concentration of 10 mM was prepared in a test tube with 90% DMSO (10% water), and it was used to prepare a series of dilutions with a dilution factor of 1:5 and final concentrations starting from 100 μM and lowering to 0.05 nM.
0.2 μl of the solution of the compound was transferred into a 384-well reaction plate, and 0.2 μl of 100% DMSO was transferred into both the negative and positive controls. Then, 10 μl of 2×PDE4B1 enzyme solution (a final concentration of 0.04 nM) was added to the wells, and 10 μl of 1× reaction buffer (50 mM HEPES, pH 7.5, 0.0015% Brij-35) instead of the enzyme solution was added to the wells of the control without enzyme activity. The plate was centrifuged at 1,000 rpm for 1 min and incubated at room temperature for 15 min. Next, 10 μl of 2×FAM-CAMP substrate solution (a substrate final concentration of 0.1 μM) was added to each well of the 384-well reaction plate. The plate was centrifuged at 1,000 rpm for 1 min, and the reaction was carried out at 25° C. for 30 min. […]
After completion of the incubation, the RLU data were read and the inhibition rate was calculated. The IC50 value was calculated from the concentration-inhibition fitted curve, wherein the maximum value refers to the reading of the DMSO control and the minimum value refers to the reading of the control without enzyme activity.

A further data set relates to TNF-α release in PBMCs. As to the kind of experiment: Inhibition of LPS-induced TNF-α release in peripheral blood mononuclear cells. As to conditions: PBMC; LPS 0.1 ng/ml, 24 hours, ELISA. It counts as cell-based. As to the method: Frozen PBMCs were thawed and detected by Trypan blue staining for cell viability and number. The thawed PBMCs were washed with RPMI1640 complete medium (RPMI1640+10% FBS+1% PS) and centrifuged, and the supernatant was discarded. The PBMCs were resuspended with RPMI1640 complete medium and the cell density was adjusted to 2×10^6 cells/mL. 2×10^5 PBMC cells were plated in a 96-well cell culture plate, and the compounds to be tested were added at different concentrations, in a 1:5 serial dilution of 9 concentrations starting from a maximum compound concentration of 100 μM, each in duplicate wells. LPS was added at a final concentration of 0.1 ng/ml, making a total volume of 200 μL. For the negative and positive controls, only LPS and DMSO were added to the negative control wells, while 1 μg/mL of dexamethasone as a positive control was added to the positive control wells in addition to cells and LPS. The cells were incubated for 24 hours in an incubator at 37° C. After completion of the incubation, 100 μL of cell culture supernatant was collected and detected by ELISA for the TNF-α level. 100 μL of CellTiter-Glo was added to the remaining cells in each well to detect the level of cell viability. The IC50 values of inhibition on TNF-α release by the compounds were calculated.

The nature of data set [3]: Dynamic vapor sorption (DVS) hygroscopicity. Type of data set: physicochemical. The source says: The ‘9103 Guidelines for Hygroscopicity of Drugs’ in Volume IV of the 2015 edition of Chinese Pharmacopoeia describes the characteristics of hygroscopicity and defines the weight gain by hygroscopicity as follows, • deliquescent: absorbing sufficient moisture to form a liquid; • extremely hygroscopic: the weight gain by hygroscopicity being no less than 15%; • hygroscopic: the weight gain by hygroscopicity being less than 15% but not less than 2%; • slightly hygroscopic: the weight gain by hygroscopicity being less than 2% but not less than 0.2%; • no or almost no hygroscopic: the weight gain by hygroscopicity being less than 0.2%.
The detection is performed using SMS Intrinsic PLUS at 25° C., with humidity change of 50%-0%-90% with a step size of 10%, in which the criteria for judging is that the mass change dM/dT for each gradient is less than 0.0002%, TMAX is 360 min, and two cycles are performed.

The nature of data set [4]: Stability test I of crystal form A (temperature and humidity; HPLC and XRPD). It counts as physicochemical. As to the method:
(§1) 5. High performance liquid chromatography (HPLC) described in the stability test of the crystal form A of the present disclosure is determined on Agilent 1260 Infinity II under the following HPLC conditions: chromatographic column of Agilen XDB C18 5 μm 4.6×250 mm; mobile phase of A—0.05% TFA (in water), and B—ACN; flow rate of 1.0 ml/min; wavelength of 220 nm.
It is determined whether temperature and humidity have an influence on the stability of crystal form A of the compound of formula I.
The crystal form A was placed in a stabilizing chamber for accelerated stability tests under a series of temperature and humidity combinations. After being placed for different days under various temperature and humidity conditions, the samples were taken out and compared with the initial crystal form A. The content of the compound of formula I was determined by high performance liquid chromatography, and XRPD detection was performed.

Data set [5] is described as follows: Stability test II of crystal form A (light; HPLC and XRPD). Type of data set: physicochemical. The protocol:
as §1
It is determined whether light has an influence on the stability of crystal form A of the compound of formula I.
The crystal form A was placed in a light stabilizing chamber, and taken out after reaching ICH strength. The resulting solid was compared with the initial crystal form A. The content of the compound of formula I was determined by high performance liquid chromatography, and XRPD detection was performed.

The source of these data is patent US20260258057A1, “CRYSTAL OF BORATE DERIVATIVE, METHOD FOR PREPARING SAME, AND USE THEREOF” (Reistone Biopharma Company Limited, priority 2022, published 2026).

For orientation: pIC50 means the IC50 on a negative log10 scale, so that one unit is a factor of ten.

pIC50: −log10 of the molar value.

T1 sequence (Q07343 whole entry): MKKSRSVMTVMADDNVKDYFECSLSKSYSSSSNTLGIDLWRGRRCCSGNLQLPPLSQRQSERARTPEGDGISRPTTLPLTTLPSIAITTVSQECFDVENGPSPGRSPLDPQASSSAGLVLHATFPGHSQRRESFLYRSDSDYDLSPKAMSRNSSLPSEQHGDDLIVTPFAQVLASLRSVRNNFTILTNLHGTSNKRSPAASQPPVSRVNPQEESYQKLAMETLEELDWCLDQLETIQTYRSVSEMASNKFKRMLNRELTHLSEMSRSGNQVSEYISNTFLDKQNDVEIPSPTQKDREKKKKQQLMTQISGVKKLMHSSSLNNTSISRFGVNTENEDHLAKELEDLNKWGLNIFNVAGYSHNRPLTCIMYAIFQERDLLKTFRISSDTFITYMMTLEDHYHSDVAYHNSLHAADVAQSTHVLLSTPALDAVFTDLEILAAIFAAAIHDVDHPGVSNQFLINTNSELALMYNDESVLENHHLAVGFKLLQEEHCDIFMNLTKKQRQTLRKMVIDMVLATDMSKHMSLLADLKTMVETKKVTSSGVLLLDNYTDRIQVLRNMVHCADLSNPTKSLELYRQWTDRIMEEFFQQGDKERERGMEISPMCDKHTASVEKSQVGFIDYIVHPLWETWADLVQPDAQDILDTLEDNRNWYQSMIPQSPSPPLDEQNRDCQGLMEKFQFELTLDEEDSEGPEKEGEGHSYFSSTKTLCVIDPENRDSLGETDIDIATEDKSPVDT

The molecule `CCCOc1cc(-c2cncc([C@@H]3COB(O)C3)c2)ccc1OC` [Compound A, reference compound] showed a pIC50 in data set [1] of 9.21. In data set [2] (0.03% applied on skin), the “Ratio of spleen to body weight, Mean” value worked out at 0.96; the “Erythema score, Mean” value is 3.33; the “Psoriasis score, Mean” value is recorded as 2.5; the “Thickness score, Mean” value was determined as 2.5. In addition, in data set [2] (0.03% applied on skin), the “Total clinical score, Mean” value amounted to 8.33. In data set [2], the “Effect on clinical score at the endpoint of the experiment” value was “significantly reduce”, the “Effect on the ratio of spleen to body weight” value is given as “no significant effect” and the “Effect on the increase in skin thickness” value was “no significant effect”.
On to `COc1ccc(-c2cncc([C@@H]3COB(O)C3)n2)c2c1OC(C)(C)CC2` [Compound I, (R)-4-(6-(8-methoxy-2,2-dimethylbenzodihydropyran-5-yl)pyrazin-2-yl)-1,2-oxaborocyclopentan-2-ol], for which, on PDE4B1 enzyme, the pIC50 was 9.77. The same molecule had a pIC50 in the data set with TNF-α release in PBMCs of 10.26. Besides, in data set [1], the pIC50 is 10.74. In data set [2] (0.01% applied on skin), the “Ratio of spleen to body weight, Mean” value came to 0.64; the “Erythema score, Mean” value was found to be 4; the “Psoriasis score, Mean” value is listed as 3.13; the “Thickness score, Mean” value was found to be 2.38. Besides, the “Total clinical score, Mean” value in data set [2] (0.01% applied on skin) was 9.5. The “Inhibitory effect on the increase in skin thickness compared with Compound A at the same dose” value in data set [2] (0.03%) is recorded as “significantly higher”. Moreover, in data set [2] (0.03% applied on skin), the “Ratio of spleen to body weight, Mean” value stood at 0.43; the “Erythema score, Mean” value is reported as 3.86; the “Psoriasis score, Mean” value was 2.14; the “Thickness score, Mean” value stood at 1.57. Moreover, the “Total clinical score, Mean” value in data set [2] (0.03% applied on skin) is reported as 7.57. Moreover, in data set [2] (0.1% applied on skin), the “Ratio of spleen to body weight, Mean” value is 0.31; the “Erythema score, Mean” value stood at 3.63; the “Psoriasis score, Mean” value was determined as 1.38; the “Thickness score, Mean” value came out at 1.75. The “Total clinical score, Mean” value in data set [2] (0.1% applied on skin) is 6.75. Also, in data set [2], the “Effect on clinical score at the endpoint of the experiment” value was “significantly reduce”, the “Effect on the ratio of spleen to body weight” value was “significantly reduce” and the “Effect on the increase in skin thickness” value was “significantly inhibit”.
In turn, `O=C(Nc1c(Cl)cncc1Cl)c1ccc(OC(F)F)c(OCC2CC2)c1` [Roflumilast] gave a pIC50 in data set [1] of 7.89.
Consider `COc1ccc(-c2cncc([C@@H]3COB(O)C3)n2)c2c1OC(C)(C)CC2` [crystal form A, (R)-4-(6-(8-methoxy-2,2-dimethylbenzodihydropyran-5-yl)pyrazin-2-yl)-1,2-oxaborocyclopentan-2-ol], for which the “Weight gain by hygroscopicity” value is reported as “approximately 0.15%” in data set [3] (accelerated experimental conditions, 70% RH); “approximately 0.70%” in data set [3] (extreme conditions, 90% RH); “approximately 0.08%” in data set [3] (normal storage conditions, 25° C., 60% RH). The “Crystal form before and after DVS detection (XRPD)” value in data set [3] (after DVS, humidity 0% to 90% RH) is reported as “does not change”. Besides, the Purity is 98.01% in data set [4] (55 °C, 30% humidity, 18 days); 97.40% in data set [4] (55 °C, 79% humidity, 20 days); 97.74% in data set [4] (65 °C, 11% humidity, 20 days); 96.16% in data set [4] (65 °C, 50% humidity, 20 days); 95.86% in data set [4] (65 °C, 75% humidity, 20 days); 97.33% in data set [4] (70 °C, 11% humidity, 20 days). In addition, the Purity was found to be 97.41% in data set [4] (75 °C, 0% humidity, 20 days); 96.57% in data set [4] (75 °C, 50% humidity, 7 days); 97.99% in data set [4] (initial, 0 days); 97.99% in data set [5] (At 0); 97.76% in data set [5] (Light-0.5 ICH); 97.15% in data set [5] (Light-1.0 ICH). In data set [4] (accelerated stability tests, Table 4 conditions), the “Overall stability under temperature and humidity combinations” value is “remains unchanged and exhibits good stability”.
